Read-outs that look alike come from different tables or passages of the source. Blank lines part the entries; values can stand above or below the compound they belong to.
Experiments:
tyrosinase = tested on: tyrosinase; set-up: method as in PMID 17295516; settings: cited from earlier work
mushroom tyrosinase [1] = settings: cited from earlier work
mushroom tyrosinase [2] = target: mushroom tyrosinase (Agaricus bisporus, UniProt C7FF04); test: Mushroom tyrosinase inhibitory assay (o-diphenolase activity, L-DOPA as substrate); type: biochemical; settings: for inhibition at 200 µM: read-out: Mushroom Tyrosinase Inhibition % Inhibition (at 200 μM);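 as to all read-outs here: enzyme and test sample preincubated 10 min at 25 °C in pH 6.8 phosphate buffer, 50% DMSO vehicle as control, enzyme-free mixture as blank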
mushroom tyrosinase (Agaricus bisporus, UniProt C7FF04), sequence (G1K3P4 entry or part of it): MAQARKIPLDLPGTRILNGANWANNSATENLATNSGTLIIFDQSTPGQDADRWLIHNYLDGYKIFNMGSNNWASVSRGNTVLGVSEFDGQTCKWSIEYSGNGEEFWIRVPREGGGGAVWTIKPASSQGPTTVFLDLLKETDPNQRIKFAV
mushroom tyrosinase (Agaricus bisporus, UniProt C7FF04), sequence (C7FF04 2-392): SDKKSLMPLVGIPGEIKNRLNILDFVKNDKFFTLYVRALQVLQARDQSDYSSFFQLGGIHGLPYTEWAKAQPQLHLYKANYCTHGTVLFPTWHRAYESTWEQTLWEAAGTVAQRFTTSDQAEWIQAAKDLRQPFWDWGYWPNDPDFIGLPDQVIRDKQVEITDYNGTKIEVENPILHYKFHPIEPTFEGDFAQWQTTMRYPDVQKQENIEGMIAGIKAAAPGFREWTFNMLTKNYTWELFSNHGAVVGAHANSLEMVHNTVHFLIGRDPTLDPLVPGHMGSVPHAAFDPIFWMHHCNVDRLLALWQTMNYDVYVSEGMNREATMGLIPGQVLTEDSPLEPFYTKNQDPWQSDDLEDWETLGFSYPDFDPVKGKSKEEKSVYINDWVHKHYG

murine tyrosinase = target: T1, murine tyrosinase (Mus musculus, UniProt P11344); test: Murine tyrosinase inhibitory assay (o-diphenolase activity, crude enzyme from B16-F10 melanoma cells); type: biochemical; settings: 200 μM, L-DOPA substrate;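 also: crude tyrosinase taken from lysed, dialyzed B16-F10 cell extract, with the inhibition reaction incubated for 2 h at 37 °C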
T1 construct: The cells were lysed by vortex and incubated at 4 °C for 1 h to solubilize the tyrosinase enzyme; endogenous in cells; host or cells: B16-F10 melanoma cells (Triton X-100 lysate, dialyzed)
T1 sequence (P11344 19-533): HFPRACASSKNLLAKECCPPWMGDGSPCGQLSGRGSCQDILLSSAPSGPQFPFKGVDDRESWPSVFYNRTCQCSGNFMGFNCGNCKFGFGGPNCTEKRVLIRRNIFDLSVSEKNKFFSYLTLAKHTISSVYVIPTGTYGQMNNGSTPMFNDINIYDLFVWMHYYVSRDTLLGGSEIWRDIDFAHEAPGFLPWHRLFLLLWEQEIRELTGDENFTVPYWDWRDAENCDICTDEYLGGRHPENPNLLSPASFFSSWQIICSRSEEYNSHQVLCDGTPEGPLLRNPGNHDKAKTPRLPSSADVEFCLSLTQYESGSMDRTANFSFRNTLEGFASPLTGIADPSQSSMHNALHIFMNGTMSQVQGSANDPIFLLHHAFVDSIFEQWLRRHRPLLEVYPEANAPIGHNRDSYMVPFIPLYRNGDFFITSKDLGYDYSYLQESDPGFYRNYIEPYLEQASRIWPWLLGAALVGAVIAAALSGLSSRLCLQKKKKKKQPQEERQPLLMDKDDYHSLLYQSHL

B16-F10 melanoma cells [3] = test: Total melanin content assay; type: cell-based, Mus musculus (mouse); settings: for activity at 15 µM / activity at 30 µM: B16-F10, read-out: % Melanin Content; for activity at 15 µM / activity at 30 µM / % Melanin Content: 72 h, relative to control
Method: Mus musculus (mouse) melanoma cell line, B16-F10 (ATCC® Number: CRL-6475™, Manassas, VA, USA), was cultured in complete Dulbecco′s Modified Eagle′s Medium (DMEM, phenol red-free medium) containing 10% fetal bovine serum, 25 mM glucose, 4 mM L-glutamine, 1 mM sodium pyruvate, 10 μg/mL penicillin, and 10 μg/mL streptomycin, at 37 °C, with 5% carbon dioxide (CO2) in a humidified atmosphere.
The total melanin content, produced both extracellularly and intracellularly, was determined as follows: B16-F10 cells were seeded onto a 24-well plate at a concentration of 50,000 cells/0.5 mL/well and were incubated for 24 h, followed by treatment with either the test compounds or the control (0.5% DMSO), and then incubated for 72 h. For extraction, the total produced melanin and 0.5 mL of 2 N NaOH containing 20% DMSO were added directly to the cell culture medium, mixed by pipetting and then incubated at room temperature for 1 h. The lysed cell extract was centrifuged at 13,000× g for 5 min. Finally, the supernatant was transferred to a 96-well plate and the relative melanin content was detected at 405 nm using a micro plate reader. Kojic acid and oxyresveratrol were used as positive controls.

[4] = Cell viability assay (PrestoBlue resazurin); type: cell-based, Mus musculus (mouse); settings: mouse, 72 h, relative to control, read-out: % Cell Viability;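 also: mouse B16-F10 melanoma cells exposed to test samples for 72 h, with viability read as fluorescence of resorufin formed when living cells reduce PrestoBlue resazurin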
[5] = tested on: murine melan-a melanocytes; set-up: method as in PMID 19182387; settings: cited from earlier work
[6] = tested on: human melanoma cells (MMV II); set-up: method as in PMID 25248426; settings: cited from earlier work
B16-F10 melanoma cells [7] = test: Cell viability assay (PrestoBlue resazurin); type: cell-based, Mus musculus (mouse);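 also: mouse B16-F10 melanoma cells exposed to test samples for 72 h, with viability read as fluorescence of resorufin formed when living cells reduce PrestoBlue resazurin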
[8] = tested on: murine B16-F10 melanoma cells; set-up: method as in PMID 17873839, PMID 14717847, PMID 16794334, PMID 26656314; settings: cited from earlier work
[9] = read-out: monophenolase activity of mushroom tyrosinase IC50
[10] = read-out: Murine Tyrosinase Inhibition, % (at 200 μM)
[11] = 30 μM, 72 h, relative to control

Compound: O=c1c(-c2ccc(O)cc2)coc2c(O)c(O)cc(O)c12 [5,7,8,4′-tetrahydroxyisoflavone]
inhibition of monophenolase and diphenolase activities of tyrosinase (in words) (tyrosinase): irreversibly inhibit

Compound: O=c1c(-c2ccc(O)cc2)coc2cc(O)c(O)cc12 [6,7,4′-trihydroxyisoflavone]
IC50 (mushroom tyrosinase [1]; [9]): 9.2 µM

Compound: O=c1c(-c2ccc(O)cc2)coc2c(O)c(O)ccc12 [7,8,4′-trihydroxyisoflavone]
inhibition of monophenolase and diphenolase activities of tyrosinase (in words) (tyrosinase): irreversibly inhibit

Compound: COc1ccc(-c2coc3cc(O)ccc3c2=O)cc1O [Compound 2, Calycosin]
inhibitory activity on mushroom tyrosinase (in words) (mushroom tyrosinase [2]; o-diphenolase, L-DOPA substrate): did not show inhibitory activity
inhibition at 300 µM (mushroom tyrosinase [2]; read-out: Mushroom Tyrosinase Inhibition % Inhibition (at 300 μM)): 0%
inhibition at 200 µM (murine tyrosinase; read-out: Murine Tyrosinase Inhibition, % (at 200 μM), symbol): < 0%
activity at 15 µM (B16-F10 melanoma cells [3]; Mus musculus, 15 μM): 143 ± 8.2%
activity at 30 µM (B16-F10 melanoma cells [3]; Mus musculus, 30 μM): 197 ± 6.4%
viability at 72 h, 15 µM ([4]; B16-F10 melanoma cells): 99.1 ± 9.2%
viability at 72 h, 30 µM ([4]; B16-F10 melanoma cells): 101 ± 1.9%
IC50 (mushroom tyrosinase [1]; read-out: monophenolase inhibition of mushroom tyrosinase IC50): 38.4 µM
effect on melanin biosynthesis (in words) [5]: reduced melanin biosynthesis

behaviour as substrate of mushroom tyrosinase (in words) (mushroom tyrosinase [2]; pre-incubation with enzyme in absence of L-DOPA, coloured product at 475 nm): chromogenic substrate analogs
inhibition at 200 µM (murine tyrosinase; [10]): 9.9 ± 3.1%
Compound: O=c1c(-c2ccc(O)cc2)coc2cc(O)cc(O)c12 [Compound 4, Genistein]
effect on melanin content (in words, Figure 1) (B16-F10 melanoma cells [3]; 30 μM): increased the melanin content
activity at 15 µM (B16-F10 melanoma cells [3]; Mus musculus, 15 μM): 165.1 ± 1.6%
activity at 30 µM (B16-F10 melanoma cells [3]; Mus musculus, 30 μM): 192 ± 13.9%
viability at 72 h, 15 µM [4]: 128 ± 3.5%
viability at 72 h, 30 µM [4]: 93.8 ± 5.7%
IC50 (mushroom tyrosinase [1]; [9]): 822 µM
effect on melanogenesis (in words) [6]: melanogenesis-promoting actions

inhibition at 200 µM (mushroom tyrosinase [2]; 200 μM, L-DOPA substrate): 72.7 ± 2.2%
inhibition at 200 µM (murine tyrosinase; [10]): 10.1 ± 3%
Compound: COc1cc(O)c(-c2coc3cc(O)cc(O)c3c2=O)cc1O [Compound 5, Khrinone B]
activity at 15 µM (B16-F10 melanoma cells [3]; Mus musculus, 15 μM): 84.1 ± 5.3%
activity at 30 µM (B16-F10 melanoma cells [3]; Mus musculus, 30 μM): 34.7 ± 12.3%
viability at 72 h, 15 µM ([4]; B16-F10 melanoma cells): 95.1 ± 5.4%
viability at 72 h, 30 µM ([4]; B16-F10 melanoma cells): 60%
% Cell Viability (B16-F10 melanoma cells [7]; [11]): 62.3 ± 15.1%

inhibition at 500 µM (mushroom tyrosinase [2]; 500 μM, L-DOPA substrate): 13%
inhibition at 200 µM (murine tyrosinase; [10]): 9.5 ± 1.6%
Compound: COc1ccc([C@H]2COc3cc(O)ccc3C2=O)c(OC)c1 [Compound 14, (3S)-Sativanone]
activity at 15 µM (B16-F10 melanoma cells [3]; Mus musculus, 15 μM): 124 ± 4.3%
activity at 30 µM (B16-F10 melanoma cells [3]; Mus musculus, 30 μM): 128 ± 6%
viability at 72 h, 15 µM ([4]; B16-F10 melanoma cells): 107 ± 10.6%
viability at 72 h, 30 µM ([4]; B16-F10 melanoma cells): 60%
% Cell Viability (B16-F10 melanoma cells [7]; [11]): 64.3 ± 23.7%

inhibition at 200 µM (mushroom tyrosinase [2]; 200 μM, L-DOPA substrate): 64.1 ± 1.3%
inhibition at 200 µM (murine tyrosinase; [10]): 11.4 ± 2.5%
Compound: COc1ccc(C2COc3c(ccc(O)c3OC)C2)c(O)c1O [Compound 21, (3R,S)-3′-Hydroxy-8-methoxy vestitol]
activity at 15 µM (B16-F10 melanoma cells [3]; Mus musculus, 15 μM): 97 ± 6.3%
activity at 30 µM (B16-F10 melanoma cells [3]; Mus musculus, 30 μM): 36.3 ± 0.1%
viability at 72 h, 15 µM ([4]; B16-F10 melanoma cells): 102.9 ± 1%
viability at 72 h, 30 µM ([4]; B16-F10 melanoma cells): 60%
% Cell Viability (B16-F10 melanoma cells [7]; [11]): 62.4 ± 3.2%

inhibition at 200 µM (mushroom tyrosinase [2]; 200 μM, L-DOPA substrate): 84.6 ± 0.6%
inhibition at 200 µM (murine tyrosinase; [10]): 29.2 ± 2.9%
Compound: COc1cc2c(cc1O)[C@@H]1COc3cc(O)ccc3[C@@H]1O2 [Compound 27, (6aR,11aR)-3,8-Dihydroxy-9-methoxy pterocarpan]
effect on melanin content (in words, Figure 1) (B16-F10 melanoma cells [3]; 30 μM): inhibitory effect of melanogenesis
inhibition at 15 µM (B16-F10 melanoma cells [3]; Mus musculus, B16-F10, 15 μM, read-out: inhibition of melanogenesis): 59%
activity at 15 µM (B16-F10 melanoma cells [3]; Mus musculus, 15 μM): 41.9 ± 0.4%
activity at 30 µM (B16-F10 melanoma cells [3]; Mus musculus, 30 μM): 53.5 ± 0.4%
viability at 72 h, 15 µM ([4]; B16-F10 melanoma cells): 106 ± 4.9%
viability at 72 h, 30 µM ([4]; B16-F10 melanoma cells): 14%
toxicity to B16-F10 cells (in words) (B16-F10 melanoma cells [7]; 15 μM): no toxicity
% Cell Viability (B16-F10 melanoma cells [7]; [11]): 14.5 ± 0.9%

Compound: O=c1cc(-c2ccccc2)oc2cc(O)cc(O)c12 [chrysin]
effect on melanogenesis (in words) [6]: melanogenesis-promoting actions

Compound: O=c1c(-c2ccc(O)cc2)coc2cc(O)ccc12 [daidzein, 7,4′-dihydroxyisoflavone]
IC50 (mushroom tyrosinase [1]; [9]): 264 µM

Compound: O=c1c(O)c(-c2ccc(O)c(O)c2)oc2cc(O)ccc12 [fisetin]
effect on melanogenesis (in words) [6]: melanogenesis-promoting actions

Compound: COc1cc2c(=O)c(-c3ccc(O)cc3)coc2cc1O [glycitein, 6-methoxy-7,4′-dihydroxyisoflavone]
IC50 (mushroom tyrosinase [1]; [9]): 237 µM

Compound: O=c1c(O)c(-c2ccc(O)cc2)oc2cc(O)cc(O)c12 [kaempferol]
effect on melanogenesis (in words) [6]: melanogenesis-promoting actions

Compound: O=c1cc(-c2ccc(O)c(O)c2)oc2cc(O)cc(O)c12 [luteolin]
effect on melanogenesis (in words) [6]: melanogenesis-promoting actions

Compound: O=C1C[C@@H](c2ccc(O)cc2)Oc2cc(O)cc(O)c21 [naringenin]
effect on melanogenesis (in words) [8]: stimulate melanogenesis

Compound: O=c1c(O)c(-c2ccc(O)c(O)c2)oc2cc(O)cc(O)c12 [quercetin]
effect on melanogenesis (in words) [8]: stimulate melanogenesis
effect on melanogenesis (in words) [6]: melanogenesis-promoting actions

Compound: COc1cc(O)c2c(=O)c(O)c(-c3ccc(O)c(O)c3)oc2c1 [rhamnetin]
effect on melanogenesis (in words) [6]: melanogenesis-promoting actions

Compound: Alpinetin [Compound 26]
Mushroom Tyrosinase Inhibition % Inhibition (at 200 μM) (mushroom tyrosinase [2]; 200 μM, L-DOPA substrate): 36.9 ± 0.5%
IC50 (mushroom tyrosinase [2]; L-DOPA substrate, read-out: Mushroom Tyrosinase Inhibition IC50): 450 ± 48.5 µM
Murine Tyrosinase Inhibition, % (at 200 μM), symbol (murine tyrosinase): - (no inhibition at 200 μM)
% Melanin Content (B16-F10 melanoma cells [3]; 15 μM): 89.7 ± 0.4%
% Melanin Content (B16-F10 melanoma cells [3]; 30 μM): 92.3 ± 1.6%
% Cell Viability (B16-F10 melanoma cells [7]; 15 μM): 77.0 ± 12.7%
% Cell Viability (B16-F10 melanoma cells [7]; 30 μM): 77.1 ± 10.2%

Source: paper PMC6100075, “Correlation between the Potency of Flavonoids on Mushroom Tyrosinase Inhibitory Activity and Melanin Synthesis in Melanocytes” (Molecules : A Journal of Synthetic Chemistry and Natural …, 2018)
